Assay results taken from ChEMBL document CHEMBL3272069, “Inhibition of acetylcholinesterase by thiamine. A structure-function study” (J Med Chem, 1977).
The source made the active and inactive calls. The rule behind the calls is not given here.

Assays:
[1] = target: T1, Acetylcholinesterase (Electrophorus electricus, UniProt O42275); experiment: (§1) Competitive inhibition of electric eel AChE using acetylthiocholine chloride as substrate at pH 7 by Michaelis-Menten plot analysis
[2] = target: T1, Acetylcholinesterase; experiment: (§2) Competitive inhibition of electric eel AChE using acetylthiocholine chloride as substrate at pH 8.25 by Michaelis-Menten plot analysis
[3] = target: T1, Acetylcholinesterase; experiment: (§3) Noncompetitive inhibition of electric eel AChE using acetylthiocholine chloride as substrate at pH 8.25 by Michaelis-Menten plot analysis
[4] = target: T1, Acetylcholinesterase; experiment: (§4) Noncompetitive inhibition of electric eel AChE using acetylthiocholine chloride as substrate at pH 7 by Michaelis-Menten plot analysis
[5] = Dissociation constant, pKa of the compound by potentiometric titration analysis; assay type: physicochemical
[6] = target: Acetylcholinesterase (Electrophorus electricus) (UniProt O42275); experiment: as §1
[7] = target: Acetylcholinesterase (Electrophorus electricus) (UniProt O42275); experiment: as §2
[8] = target: Acetylcholinesterase (Electrophorus electricus) (UniProt O42275); experiment: as §3
[9] = target: Acetylcholinesterase (Electrophorus electricus) (UniProt O42275); experiment: as §4

Acetylcholinesterase (Electrophorus electricus), sequence (O42275 24-633 limits assumed): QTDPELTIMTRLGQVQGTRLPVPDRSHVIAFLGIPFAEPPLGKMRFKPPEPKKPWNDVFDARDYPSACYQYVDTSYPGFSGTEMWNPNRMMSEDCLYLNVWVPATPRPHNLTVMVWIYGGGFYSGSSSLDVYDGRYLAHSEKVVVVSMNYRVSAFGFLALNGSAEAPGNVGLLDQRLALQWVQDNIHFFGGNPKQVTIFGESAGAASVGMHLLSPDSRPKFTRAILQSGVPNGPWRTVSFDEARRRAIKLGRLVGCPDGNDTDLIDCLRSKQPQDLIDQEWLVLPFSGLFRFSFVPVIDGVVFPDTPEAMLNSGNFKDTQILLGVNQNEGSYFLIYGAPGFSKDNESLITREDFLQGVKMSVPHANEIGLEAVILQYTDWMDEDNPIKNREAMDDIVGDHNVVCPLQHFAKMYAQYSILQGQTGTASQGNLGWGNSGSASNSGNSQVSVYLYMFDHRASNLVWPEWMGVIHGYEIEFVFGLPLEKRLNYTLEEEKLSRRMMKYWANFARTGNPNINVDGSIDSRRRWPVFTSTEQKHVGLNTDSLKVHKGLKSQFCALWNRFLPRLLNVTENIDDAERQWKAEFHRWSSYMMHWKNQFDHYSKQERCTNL
T1 sequence (O42275 whole entry): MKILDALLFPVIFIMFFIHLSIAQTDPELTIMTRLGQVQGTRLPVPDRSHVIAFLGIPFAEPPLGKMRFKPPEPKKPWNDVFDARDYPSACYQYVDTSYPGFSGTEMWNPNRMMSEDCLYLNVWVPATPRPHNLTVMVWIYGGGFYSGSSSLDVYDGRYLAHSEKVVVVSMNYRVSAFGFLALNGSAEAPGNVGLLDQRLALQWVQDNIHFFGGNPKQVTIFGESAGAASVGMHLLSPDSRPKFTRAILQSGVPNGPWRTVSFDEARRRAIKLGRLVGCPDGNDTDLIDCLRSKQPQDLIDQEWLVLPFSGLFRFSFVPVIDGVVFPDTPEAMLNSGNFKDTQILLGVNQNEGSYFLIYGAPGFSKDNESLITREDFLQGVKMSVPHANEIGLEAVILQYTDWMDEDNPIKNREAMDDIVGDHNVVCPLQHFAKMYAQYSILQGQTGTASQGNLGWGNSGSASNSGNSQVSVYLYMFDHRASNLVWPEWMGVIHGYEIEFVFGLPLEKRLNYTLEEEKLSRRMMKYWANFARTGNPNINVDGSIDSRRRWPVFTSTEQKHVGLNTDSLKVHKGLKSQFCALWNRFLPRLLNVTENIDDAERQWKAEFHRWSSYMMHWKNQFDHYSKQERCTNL

For `C[n+]1ccsc1`, which Ki [1] is on record?
The Ki was 317 µM.

What about the Ki [2] of the same compound?
Its Ki is 286 µM.

What about the Ki [3] of the same compound?
The Ki was 2.95 µM.

What about the Ki [4] of the same compound?
The Ki was 939 µM.

With `Cc1c(CCO)sc[n+]1C` as the compound, how does the Ki [1] read?
The Ki was 148 µM.

What about the Ki [2] of the same compound?
The Ki was 75.6 µM.

And the Ki [3]?
The Ki was 18800 µM.

What about the Ki [4] of the same compound?
The Ki was 1250 µM.

Which results are given for `Cc1ncc(C)c(N)n1`?
Ki [1]: 111 µM; Ki [2]: 163 µM; Ki [3]: 551 µM; pKa [5]: 6.5; Ki [4]: 260 µM

For `CCc1sc[n+](C)c1C`, which Ki [1] is on record?
Its Ki is 11.1 µM.

What about the Ki [2] of the same compound?
Its Ki is 8.34 µM.

And the Ki [3]?
The Ki was 0.935 µM.

And the Ki [4]?
The Ki was 5.43 µM.

For `Cc1ncc(C[n+]2csc(CCO[P@](=O)(O)OP(=O)(O)O)c2C)c(N)n1`, which Ki [1] is on record?
Its Ki is 14600 µM.

What about the Ki [2] of the same compound?
Its Ki is 14200 µM.

What about the Ki [3] of the same compound?
Its Ki is 58400 µM.

And the Ki [4]?
Its Ki is 6740 µM.

For `Cc1ncc(C[n+]2csc(CCO)c2C)c(N)n1` [THIAMINE], which Ki [1] is on record?
The Ki was 432 µM.

And the Ki [2]?
Its Ki is 392 µM.

And the Ki [3]?
The Ki was 333 µM.

And the Ki [4]?
Its Ki is 565 µM.

Which results are given for `Cc1ncc(CS(=O)(=O)O)c(N)n1`?
inhibition [6]: inactive; inhibition [7]: inactive; inhibition [8]: inactive; inhibition [9]: inactive

Which Ki [1] does the source give for `Nc1ccncn1` here?
Its Ki is 5020 µM.

And the Ki [2]?
Its Ki is 9720 µM.

What about the Ki [3] of the same compound?
Its Ki is 4240 µM.

And the pKa [5]?
Its pKa is 5.71.

What about the Ki [4] of the same compound?
The Ki was 8850 µM.

Which inhibition [6] does the source give for `c1cncnc1` here?
Its inhibition is “inactive”.

What about the inhibition [7] of the same compound?
Its inhibition is “inactive”.

And the inhibition [8]?
The inhibition was “inactive”.

What about the inhibition [9] of the same compound?
Its inhibition is “inactive”.

What does the source list for `CCc1scnc1C`?
Ki [1]: 468 µM; Ki [2]: 562 µM; Ki [3]: 51100 µM; Ki [4]: 1950 µM

Which Ki [1] does the source give for `Cc1ncc(C[n+]2csc(CCOP(=O)(O)OP(=O)(O)OP(=O)(O)O)c2C)c(N)n1` here?
The Ki was 5200 µM.

What about the Ki [2] of the same compound?
The Ki was 10000 µM.

What about the Ki [3] of the same compound?
The Ki was 1000 µM.

What about the Ki [4] of the same compound?
Its Ki is 881 µM.

Which results are given for `Cc1ncc(CN2CSC3CCOC32C)c(N)n1` (stereo not drawn)?
Ki [2]: 541 µM; Ki [3]: 237 µM

What does the source list for `Cc1ncc(C[n+]2csc(CCOP(=O)(O)O)c2C)c(N)n1` [MONOPHOSPHOTHIAMINE]?
Ki [1]: 3010 µM; Ki [2]: 11300 µM; Ki [3]: 5930 µM; Ki [4]: 9270 µM

What does the source list for `Cc1ncc(CN2CSC(CCO)C2C)c(N)n1` (stereo not drawn)?
Ki [1]: 188 µM; Ki [2]: 496 µM; Ki [3]: 839 µM; pKa [5]: 7.6; Ki [4]: 624 µM

What does the source list for `Cc1csc[n+]1C`?
Ki [1]: 67.9 µM; Ki [2]: 54.8 µM; Ki [3]: 445 µM; Ki [4]: 9.8 µM

Which inhibition [6] does the source give for `c1cscn1` here?
Its inhibition is “inactive”.

And the inhibition [7]?
Its inhibition is “inactive”.

What about the inhibition [8] of the same compound?
The inhibition was “inactive”.

And the inhibition [9]?
Its inhibition is “inactive”.

With `Cc1ncsc1CCO` as the compound, how does the Ki [1] read?
Its Ki is 7990 µM.

What about the Ki [2] of the same compound?
Its Ki is 8610 µM.

And the Ki [3]?
The Ki was 706 µM.

What about the Ki [4] of the same compound?
Its Ki is 1370 µM.

What does the source list for `Cc1cscn1`?
Ki [1]: 5420 µM; Ki [2]: 6070 µM; Ki [3]: 109000 µM; Ki [4]: 3250 µM
